{"source": "patent US10500198B2", "about": "“Bis-benzylidine piperidone proteasome inhibitor with anticancer activity” (The Johns Hopkins University, priority 2013, dated 2019)", "key": {"[1]": {"molecular_target": "T1, RPN13 (Homo sapiens, UniProt Q16186)", "T1 construct": "endogenous in cells; host or cells: HeLa, HS578T cell lysate", "T1 sequence (Q16186 whole entry)": "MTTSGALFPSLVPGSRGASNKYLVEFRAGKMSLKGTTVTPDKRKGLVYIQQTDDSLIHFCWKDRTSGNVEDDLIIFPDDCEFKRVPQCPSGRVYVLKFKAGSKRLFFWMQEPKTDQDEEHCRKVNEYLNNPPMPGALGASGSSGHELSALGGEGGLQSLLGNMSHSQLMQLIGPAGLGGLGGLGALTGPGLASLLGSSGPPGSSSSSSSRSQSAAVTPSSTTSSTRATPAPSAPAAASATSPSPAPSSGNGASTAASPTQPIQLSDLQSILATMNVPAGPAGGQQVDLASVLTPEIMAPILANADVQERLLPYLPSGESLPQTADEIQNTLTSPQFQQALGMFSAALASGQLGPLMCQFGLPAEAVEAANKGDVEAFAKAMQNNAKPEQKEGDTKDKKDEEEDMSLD", "experiment": "Biotin labeling assay", "assay_type": "binding", "settings": "cell lysate or purified RP, streptavidin-peroxidase blot", "description": "FIGS. 10 A-10E show a series of graphs and immunoblots showing the effects of several compounds on cell viability and proteasome activity. […] 10B and 10C show immunoblots of the proteasome activity of cell lines treated with the indicated compounds. […] IC50 values were determined in triplicate. In FIG. 10B, HeLa cells were treated for 12 hr and the cell lysate was subjected to immunoblot analysis with anti-Ubiquitin antibody. In FIG. 10C, SiHa cells were treated with the indicated compounds for 12 hr and the lysate subjected to Western blot analysis with anti-Ubiquitin antibody. HeLa cell lysate was treated with RA190B, subjected to SDS-PAGE, and probed with streptavidin-peroxidase following protein transfer to a polyvinylidene difluoride (PVDF) membrane. The streptavidin-peroxidase bound to biotinylated cellular proteins, but a striking new band at 42 kDa appeared in RA190B-treated samples (FIG. 2A). […] IC50 values were determined in triplicate.\nTo eliminate the possibility that another RP component was required for RA190B interaction, RPN13 or an irrelevant protein (L2) was overexpressed in bacteria. Cell lysate harvested from bacteria either with or without […] induction of ectopic protein expression was labeled with RA190B and probed by blotting with streptavidin-peroxidase. RA190B reacted strongly with a 42 kDa protein only in lysates of bacteria expressing RPN13 (FIG. 2D). […] 800 μL fractions were collected and alternate fractions (1,3,5,7,9,11,13,15,17) were analyzed for the presence of proteasomal proteins (RPN13, RPN2, RPN1 and UCH37) by Western blot analysis.\nHuman cells (5×10^6 HeLa or 293TT cells) were lysed using MPER (Pierce) lysis buffer (500 μL). RPN13 or HPV L2 transformed bacterial cells (500 μL of culture) were centrifuged to harvest the cells which were re-suspended in 500 μL BPER (Pierce). Cell lysates were centrifuged at 10,000 rpm briefly (2 min) at 4° C. to remove cell debris. Lysate supernatant (200 μL) was pre cleared with streptavidin dyna beads (20 μL) for 1 h at 4° C. to remove non-specific biotin binding and incubated with compounds (indicated concentrations or 20 μM) at 4° C. for 1 hr. An equal amount of each sample (20 μL of lysate) was mixed with an equal volume of Laemmli sample buffer (20 μL) (BioRad) and was boiled for 5 min. […] (24 V). Membrane was blocked with 5% BSA in PBST for 1 hr at room temperature and washed for 20 min (3×PBST). Then the membrane was probed with HRP-streptavidin (1:10,000 in PBST) for 1 hr at room temperature and washed for 30 min (3×PBST) and developed using HyGLO chemiluminescent detection reagent (Denville) for biotin recognition. For the purified enzyme assay, 19S purified proteasome (R&D Systems, Cat. No. E-366) (500 ng) in 19S buffer (20 mM HEPES, 20 mM NaCl, 1 mM DTT, 15% Glycerol) was incubated with compounds (20 μM) for 1 hr at room temperature and mixed with an equal volume of Laemmli sample buffer (20 μL) (BioRad) and was boiled for 5 min. Each sample was loaded onto gel and followed the western blot protocol mentioned above.\nPurified 19S proteasome (500 ng) was incubated with corresponding compounds for 30 min and subjected to immunoblot and probed with HRP-conjugated streptavidin. In FIG. 23, the single band at 42 KDa indicates Rpn13 binding to 195. RA183B (20 μM) is used as positive control for Rpn13 binding. Competition experiments were done with RA183 (100 μM) and RA195 (100 μM) along with RA195B (20 μM)."}, "[2]": {"tested_on": "HCC 1806, HS578T, BT549 and MB-231 breast cancer cells", "experiment": "Viability of triple negative breast cancer cell lines", "assay_type": "cell-based", "settings": "48 hours", "description": "To test the efficacy of various RA compound derivatives on the viability of breast cancer cells, breast cancer cell lines were treated in vitro with varying concentrations of selected compounds. […] FIGS. 16A-16E are a series of data graphs and a western blot showing the efficacy of select compounds against various breast cancer cell lines. […] Briefly HS578T cell lysate was incubated with corresponding compounds for the period of 1 hr at 4 C and subjected to Western blot analysis and probed for HRP-Streptavidin."}}, "data": [{"smiles": "C=CC(=O)N[C@@H](Cc1ccccc1)C(=O)N1C/C(=C\\c2ccc(Cl)c(Cl)c2)C(=O)/C(=C/c2ccc(Cl)c(Cl)c2)C1", "note": "[RA190Acr]", "values": [{"measurement": "labeling of / competition for RPN13 (42 kDa band)", "setting": "[1]", "result": "competes the binding of RA190B to RPN13"}, {"measurement": "potency relative to RA190", "setting": "[2]", "result": "potency similar to RA190"}]}]}
